Values belong to the compound of their own block, whether it stands above or below them.
Tests used:
[1] = Resistance index, ratio of EC50 for multi-drug-resistant Plasmodium falciparum TM90-C2B infected in human type A+ erythrocytes to EC50 for multi-drug-resistant Plasmodium falciparum W2 infected in human type A+ erythrocytes; type: functional
Plasmodium falciparum [2] = assay: Antimalarial activity against multi-drug-resistant Plasmodium falciparum TM90-C2B infected in human type A+ erythrocytes assessed as growth inhibition after 72 hrs by SYBR Green I assay; type: functional, organism-based
Plasmodium berghei [3] = assay: Antimalarial activity against Plasmodium berghei ANKA expressing GFP infected in Balb/c mouse assessed as mouse survival at 50 mg/kg, po qd administered as single dose on day 3 to 5 of exposure measured on day 6 post exposure by in vivo thomson test relative to control; type: functional
Plasmodium berghei [4] = assay: Antimalarial activity against Plasmodium berghei ANKA expressing GFP infected in Balb/c mouse assessed as mouse survival at 10 mg/kg, po qd administered as single dose on day 3 to 5 of exposure measured on day 6 post exposure by in vivo thomson test relative to control; type: functional
Plasmodium berghei [5] = assay: Antimalarial activity against Plasmodium berghei ANKA expressing GFP infected in Balb/c mouse assessed as inhibition of parasitemia at 10 mg/kg, po qd administered as single dose on day 3 to 5 of exposure measured on day 6 post exposure by in vivo thomson test relative to control; type: functional
Plasmodium berghei [6] = assay: Antimalarial activity against Plasmodium berghei ANKA expressing GFP infected in Balb/c mouse assessed as inhibition of parasitemia at 50 mg/kg, po qd administered as single dose on day 3 to 5 of exposure measured on day 6 post exposure by in vivo thomson test relative to control; type: functional
Plasmodium falciparum [7] = assay: Antimalarial activity against multi-drug-resistant Plasmodium falciparum W2 infected in human type A+ erythrocytes assessed as growth inhibition after 72 hrs by SYBR Green I assay; type: functional, organism-based; details: W2, 72 h
[8] = Cytotoxicity index, ratio of EC50 for mouse J774 cells to EC50 for multi-drug-resistant Plasmodium falciparum TM90-C2B infected in human type A+ erythrocytes; type: toxicity, cell-based; details: read-out: Ratio EC50
J774 = assay: Cytotoxicity against mouse J774 cells after 72 hrs by CellTiter 96 assay; type: cell-based; details: J774, 72 h
Plasmodium berghei [9] = assay: Antimalarial activity against Plasmodium berghei ANKA expressing GFP infected in Balb/c mouse assessed as mouse cured from disease at 50 mg/kg, po qd administered as single dose on day 3 to 5 of exposure measured on day 30 post exposure by in vivo thomson test relative to control; type: functional
Plasmodium berghei [10] = assay: Antimalarial activity against Plasmodium berghei ANKA expressing GFP infected in Balb/c mouse assessed as mouse cured from disease at 10 mg/kg, po qd administered as single dose on day 3 to 5 of exposure measured on day 30 post exposure by in vivo thomson test relative to control; type: functional
Liver microsome [11] = assay: Intrinsic clearance in human liver microsomes at 1 uM by LC-MS analysis; type: ADME; details: microsomes, 1 µM
Plasmodium berghei [12] = assay: animal or person; details: ANKA, in Mus musculus, read-out: INH
Plasmodium berghei [13] = assay: animal or person; details: ANKA, in Mus musculus, read-out: INH; remark: listed apart in the source
[14] = octanol/water, pH 7.4
Liver microsome [15] = assay: Half life in human liver microsomes at 1 uM by LC-MS analysis; type: ADME
[16] = Aqueous solubility of the compound at pH 7.4; type: physicochemical; details: buffer

SMILES: COc1cc2[nH]c(C)c(-c3ccc(C(F)(F)F)cc3)c(=O)c2cc1Cl
Ratio EC50 [1]: 0.96 | EC50 (Plasmodium falciparum [2]): 5.98 nM | mouse survival time at 50 mg/kg (Plasmodium berghei [3]): 4 days | survival time at 10 mg/kg (Plasmodium berghei [4]): 3 days | inhibition in vivo at 10 mg/kg (Plasmodium berghei [5]): 92% | inhibition in vivo at 50 mg/kg (Plasmodium berghei [6]): 97% | EC50 (Plasmodium falciparum [7]): 6.25 nM | selectivity ratio [8]: > 4550 | EC50 (J774): > 27200 nM | Activity (Plasmodium berghei [9]): 0% | Activity (Plasmodium berghei [10]): 0%

CLint_mic (Liver microsome [11]): 56 µL/min/mg
SMILES: CCc1c(C)[nH]c2cc(OC)c(Cl)cc2c1=O

SMILES: COc1cc2[nH]c(C)c(-c3ccncc3)c(=O)c2cc1Cl
Ratio EC50 [1]: 1.71 | EC50 (Plasmodium falciparum [2]): 219 nM | CLint_mic (Liver microsome [11]): 15 µL/min/mg | EC50 (Plasmodium falciparum [7]): 128 nM | selectivity ratio [8]: > 152 | EC50 (J774): > 33300 nM

SMILES: COc1ccc(-c2c(C)[nH]c3cc(OC)c(Cl)cc3c2=O)cc1
Ratio EC50 [1]: 0.21 | EC50 (Plasmodium falciparum [2]): 11.3 nM | EC50 (Plasmodium falciparum [7]): 54 nM | inhibition in vivo at 50 mg/kg (Plasmodium berghei [12]): 53.6% | inhibition in vivo at 50 mg/kg (Plasmodium berghei [13]): 26.9% | selectivity ratio [8]: > 2690 | EC50 (J774): > 30300 nM

SMILES: C[C@H]1[C@H](OC(=O)CCC(=O)O)O[C@@H]2O[C@@]3(C)CC[C@H]4[C@H](C)CC[C@@H]1[C@@]24OO3 [ARTESUNATE]
inhibition in vivo at 50 mg/kg (Plasmodium berghei [12]): 97% | inhibition in vivo at 50 mg/kg (Plasmodium berghei [13]): 81%

SMILES: COc1cc2[nH]c(C)c(-c3ccc(COc4ccc(OC(F)(F)F)cc4)cc3)c(=O)c2cc1Cl
Ratio EC50 [1]: 0.21 | EC50 (Plasmodium falciparum [2]): 1.59 nM | logD [14]: 4.4 | t1/2 (Liver microsome [15]): 2.15 h | EC50 (Plasmodium falciparum [7]): 7.74 nM | selectivity ratio [8]: > 12800 | EC50 (J774): > 20400 nM

SMILES: COc1cc2[nH]c(C)c(-c3ccc(OC(C)C)cc3)c(=O)c2cc1Cl
Ratio EC50 [1]: 0.22 | EC50 (Plasmodium falciparum [2]): 12.6 nM | EC50 (Plasmodium falciparum [7]): 58.4 nM | inhibition in vivo at 50 mg/kg (Plasmodium berghei [12]): 41.4% | inhibition in vivo at 50 mg/kg (Plasmodium berghei [13]): 26.8% | selectivity ratio [8]: > 2220 | EC50 (J774): > 27900 nM

SMILES: COc1cc2[nH]c(C)c(-c3ccc(Oc4ccccc4)cc3)c(=O)c2cc1Cl
Ratio EC50 [1]: 0.55 | EC50 (Plasmodium falciparum [2]): 1.31 nM | mouse survival time at 50 mg/kg (Plasmodium berghei [3]): 4 days | survival time at 10 mg/kg (Plasmodium berghei [4]): 4 days | inhibition in vivo at 10 mg/kg (Plasmodium berghei [5]): 87% | inhibition in vivo at 50 mg/kg (Plasmodium berghei [6]): 70% | EC50 (Plasmodium falciparum [7]): 2.4 nM | inhibition in vivo at 50 mg/kg (Plasmodium berghei [12]): 83.9% | inhibition in vivo at 50 mg/kg (Plasmodium berghei [13]): 69% | selectivity ratio [8]: > 19500 | EC50 (J774): > 25500 nM | Activity (Plasmodium berghei [9]): 0% | Activity (Plasmodium berghei [10]): 0%

SMILES: COc1cc2[nH]c(C)c(-c3ccc(OCc4ccccc4)c(F)c3)c(=O)c2cc1Cl
Ratio EC50 [1]: 0.15 | EC50 (Plasmodium falciparum [2]): 10.8 nM | logD [14]: 3.8 | t1/2 (Liver microsome [15]): 0.383 h | EC50 (Plasmodium falciparum [7]): 73.4 nM | selectivity ratio [8]: > 2180 | EC50 (J774): > 23600 nM | solubility kinetic [16]: < 2 µM

SMILES: COc1cc2[nH]c(C)c(-c3ccc(F)cc3F)c(=O)c2cc1Cl
Ratio EC50 [1]: 1.7 | EC50 (Plasmodium falciparum [2]): 44.6 nM | EC50 (Plasmodium falciparum [7]): 26.3 nM | inhibition in vivo at 50 mg/kg (Plasmodium berghei [12]): 44.3% | inhibition in vivo at 50 mg/kg (Plasmodium berghei [13]): 29.1% | selectivity ratio [8]: > 668 | EC50 (J774): > 29800 nM

— ChEMBL document CHEMBL3351419, “Orally bioavailable 6-chloro-7-methoxy-4(1H)-quinolones efficacious against multiple stages of Plasmodium” (J Med Chem, 2014)
